Measured values: patent EP4800018A1, “PAN-KRAS INHIBITOR AND USE THEREOF IN MEDICINES” (Betta Pharmaceuticals Co., Ltd., priority 2023, dated 2025)
Where two headings read alike, the source gives them in different places.

Columns and labels:
Type in all cases: cell-based
[1] = system: KRAS-G12D mutant tumor cells AGS; test: Cell Proliferation Inhibition Assay (AGS), Cell-titer GLO, 96 h; conditions: Homo sapiens, AGS, 96 h, read-out: AGS(G12D)
Outline: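 Inhibition % was derived from CellTiter-Glo luminescence (max minus measured, over max minus blank) and fitted to give IC50. Cells were KRAS-G12D AGS in low-attachment wells, treated for 96 h at 37°C.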

[2] = system: KRAS-G12V mutant tumor cells SW620; test: Cell Proliferation Inhibition Assay (SW620), Cell-titer GLO, 96 h; conditions: Homo sapiens, SW-620, 96 h, read-out: SW620(G12V)
Outline: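 Readout: Cell-titer GLO luminescence after 96 h at 37°C, converted to percent inhibition against 0.5% DMSO and blank controls, with IC50 from curve fit. Low-attachment SW620 cultures (1×10^3 cells/well) were dosed at 10000–0.03 nM final.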

KRAS G12D-cRAF = target: T1, KRAS G12D-cRAF (Homo sapiens, UniProt P01116, G12D); test: Cellular KRAS G12D-cRAF Binding Inhibition Assay (NanoBRET, AD293 stable cells)
T1 construct: expressed in transfected cells
Method: (§1) NanoLuc® luciferase was used as the energy donor, and NanoBRET™ 618 fluorescent ligand labeled with the HaloTag® protein was used as the energy acceptor to detect protein-protein interactions in living cells. AD293 stable cells transfected with KRAS G12D-NanoLuc® luciferase and cRAF RBD-HaloTag® tag protein were seeded in 96-well plates at a cell density of 1×10^4 cells/well. Except for wells with medium added as a blank control, NanoBRET™ 618 fluorescent ligand was added to all other wells, and the plates were cultured overnight in a cell culture incubator. […] The luminescence data were calculated and converted into inhibition percent. The inhibition percent of KRAS G12D-cRAF binding was calculated according to the following formula: Inhibition Percent = (MaxValue−MeasuredValue)/(MaxValue−Blank) × 100% [formula] […] Curve fitting was performed using GraphPad Prism software to obtain IC50 values, see Table 1.

KRAS G12V-cRAF = target: T2, KRAS G12V-cRAF (Homo sapiens, UniProt P01116, G12V); test: Cellular KRAS G12V-cRAF Binding Inhibition Assay (NanoBRET, AD293 stable cells)
T2 construct: expressed in transfected cells
Method: as §1, with “AD293 stable cells transfected with KRAS G12D-NanoLuc® luciferase and cRAF RBD-HaloTag® tag protein were seeded in 96-well plates at a cell density of 1×10^4 cells/well.” left out, “G12V-cRAF” for “G12D-cRAF”

[3] = AGS cells, 96 h incubation, Cell-titer GLO
[4] = SW620 cells, 96 h incubation, Cell-titer GLO
[5] = 3 h incubation, read-out: NanoBRET KRAS G12D
[6] = 3 h incubation, read-out: NanoBRET KRAS G12V

T2 sequence (P01116 1-188 isoform P01116-2 G12V): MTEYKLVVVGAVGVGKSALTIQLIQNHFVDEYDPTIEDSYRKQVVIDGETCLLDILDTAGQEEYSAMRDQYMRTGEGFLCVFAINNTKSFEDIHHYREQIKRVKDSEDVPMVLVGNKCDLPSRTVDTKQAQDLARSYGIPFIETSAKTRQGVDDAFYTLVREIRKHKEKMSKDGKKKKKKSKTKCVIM
T1 sequence (P01116 1-188 isoform P01116-2 G12D): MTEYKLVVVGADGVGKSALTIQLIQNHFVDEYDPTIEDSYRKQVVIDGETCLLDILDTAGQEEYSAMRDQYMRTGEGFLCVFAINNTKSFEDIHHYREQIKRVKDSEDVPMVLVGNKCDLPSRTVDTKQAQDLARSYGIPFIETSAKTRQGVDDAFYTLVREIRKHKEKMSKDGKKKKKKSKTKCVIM

Row | Structure (SMILES) | IC50 [1, 3] | IC50 [2, 4] | IC50 (KRAS G12D-cRAF; [5]) | IC50 (KRAS G12V-cRAF; [6]) | IC50 [1] | IC50 [2] | IC50 (KRAS G12D-cRAF; read-out: NanoBRET KRAS G12D, 3 h incubation) | IC50 (KRAS G12V-cRAF; read-out: NanoBRET KRAS G12V, 3 h incubation)
1 | CC1OCCCn2c(c3c4cc(ccc42)-c2csc(n2)CC(NC(=O)C2CC2C(F)F)C(=O)N2CCCC(N2)C(=O)OCC(C)(C)C3)-c2cc(N3CC(N(C)C)C3)cnc21 [Example 94, (1S,2S)-2-(difluoromethyl)-N-((1^5S,6^3S,4S,Z)-1^2-(3-(dimethylamino)azetidin-1-yl)-1^5,10,10-trimethyl-5,7-dioxo-1^8,1^9,6^1,6^2,6^3,6^4,6^5,6^6-octahydro-1^5H,1^7H-8-oxa-1(13,15)-pyrido[3',2':7,8][1,5]oxazonino[5,6-a]indola-2(4,2)-thiazola-6(1,3)-pyridazinacycloundecaphane-4-yl)cyclopropane-1-carboxamide] | 2.68 nM | 0.34 nM | 6.55 nM | 22.7 nM | – | – | – | –
2 | CC1OCCCn2c(c3c4cc(ccc42)-c2csc(n2)CC(NC(=O)C2CC2C(F)F)C(=O)N2CCCC(N2)C(=O)OCC(C)(C)C3)-c2cc(-c3ccc(N4CCN(C)CC4)cc3)cnc21 [Example 96, (1S,2S)-2-(difluoromethyl)-N-((1^5S,6^3S,4S,Z)-1^5,10,10-trimethyl-1^2-(4-(4-methylpiperazin-1-yl)phenyl)-5,7-dioxo-1^8,1^9,6^1,6^2,6^3,6^4,6^5,6^6-octahydro-15H,17H-8-oxa-1(13,15)-pyrido[3',2':7,8][1, 5]oxazonino[5,6-a]indola-2(4,2)-thiazola-6(1,3)-pyridazinacycloundecaphane-4-yl)cyclopropane-1-carboxamide] | 2.4 nM | 1.07 nM | 5.99 nM | 19.8 nM | – | – | – | –
3 | CC1OCCCn2c(c3c4cc(ccc42)-c2csc(n2)CC(NC(=O)C2CC2C(F)F)C(=O)N2CCCC(N2)C(=O)OCC(C)(C)C3)-c2cc(OC3CCN(C)CC3)cnc21 [Example 97, (1S,2S)-2-(difluoromethyl)-N-((1^5S,6^3S,4S,Z)-1^5,10,10-trimethyl-1^2-((1-methylpiperidin-4-yl)oxy)-5,7-dioxo-1^8,1^9,6^1,6^2,6^3,6^4,6^5,6^6-octahydro-1^5H,1^7H-8-oxa-1(13,15)-pyrido[3',2':7,8][1,5]oxazonino[5,6-a]indola-2(4,2)-thiazola-6(1,3)-pyridazinacycloundecaphane-4-yl)cyclopropane-1-carb oxamide] | 2.69 nM | 0.42 nM | 11.9 nM | 61.8 nM | – | – | – | –
4 | CC1OCCCn2c(c3c4cc(ccc42)-c2csc(n2)CC(NC(=O)C24CC(C)(C2)C4)C(=O)N2CCCC(N2)C(=O)OCC(C)(C)C3)-c2cc(N3CCN(CC(F)F)CC3)cnc21 [Example 98, N-((1^5S,6^3S,4S,Z)-1^2-(4-(2,2-difluoroethyl)piperazin-1-yl)-1^5,10,10-trimethyl-5,7-dioxo-1^8,1^9,6^1, 6^2,6^3,6^4,6^5,6^6-octahydro-1^5H,1^7H-8-oxa-1(13,15)-pyrido[3',2':7,8][1,5]oxazonino[5,6-a]indola-2(4,2)-thiazola-6(1,3)-pyridazinacycloundecaphane-4-yl)-3-methylbicyclo[1.1.1]pentane-1-carbox amide] | 13.2 nM | 3.87 nM | 14.8 nM | 61.7 nM | – | – | – | –
5 | CC1OCCCn2c(c3c4cc(ccc42)-c2csc(n2)CC(NC(=O)C2CC2C(F)F)C(=O)N2CCCC(N2)C(=O)OCC(C)(C)C3)-c2cc(N3CC(N4CCN(C)CC4)C3)cnc21 [Example 99, (1S,2S)-2-(difluoromethyl)-N-((1^5S,6^3S,4S,Z)-1^5,10,10-trimethyl-1^2-(3-(4-methylpiperazin-1-yl)azetidin-1-yl)-5,7-dioxo-1^8,1^9,6^1,6^2,6^3,6^4,6^5,6^6-octahydro-1^5H,1^7H-8-oxa-1(13,15)-pyrido[3',2':7, 8][1,5]oxazonino[5,6-a]indola-2(4,2)-thiazola-6(1,3)-pyridazinacycloundecaphane-4-yl)cyclopro pane-1-carboxamide] | – | – | 4.25 nM | 13.3 nM | 0.74 nM | 0.14 nM | – | –
6 | C[C@@H]1OCCCn2c(c3c4cc(ccc42)-c2csc(n2)C[C@H](NC(=O)[C@H]2C[C@@H]2C(F)F)C(=O)N2CCC[C@H](N2)C(=O)OCC(C)(C)C3)-c2cc(N3CC4(CCN(C)CC4)C3)cnc21 [Example 100, (1S,2S)-2-(difluoromethyl)-N-((1^5S,6^3S,4S,Z)-1^5,10,10-trimethyl-1^2-(7-methyl-2,7-diazaspiro[3. 5]nonan-2-yl)-5,7-dioxo-1^8,1^9,6^1,6^2,6^3,6^4,6^5,6^6-octahydro-1^5H,1^7H-8-oxa-1(13,15)-pyrido[3',2':7, 8][1,5]oxazonino[5,6-a]indola-2(4,2)-thiazola-6(1,3)-pyridazinacycloundecaphane-4-yl)cyclopro pane-1-carboxamide] | – | – | – | – | 0.44 nM | 0.1 nM | 4.55 nM | 21.7 nM

The remaining compounds from weak to strong by IC50 [1, 3], led by results:

Row | IC50 [1, 3] | IC50 [2, 4] | IC50 (KRAS G12D-cRAF; [5]) | IC50 (KRAS G12V-cRAF; [6]) | Structure (SMILES) | IC50 [1] | IC50 [2] | IC50 (KRAS G12D-cRAF; read-out: NanoBRET KRAS G12D, 3 h incubation) | IC50 (KRAS G12V-cRAF; read-out: NanoBRET KRAS G12V, 3 h incubation)
7 | 1.51 nM | 0.21 nM | 2.7 nM | 10.3 nM | [2H]C([2H])([2H])N1CCN(c2cnc3c(c2)-c2c4c5cc(ccc5n2CCCOC3C)-c2csc(n2)CC(NC(=O)C2CC2C(F)F)C(=O)N2CCCC(N2)C(=O)OCC(C)(C)C4)CC1 [Example 91, (1S,2S)-2-(difluoromethyl)-N-((1^5S,6^3S,4S,Z)-1^5,10,10-trimethyl-1^2-(4-(methyl-d3)piperazin-1-yl)-5,7-dioxo-1^8,1^9,6^1,6^2,6^3,6^4,6^5,6^6-octahydro-1^5H,1^7H-8-oxa-1(13,15)-pyrido[3',2':7,8][1,5]oxazonino[5,6-a]indola-2(4,2)-thiazola-6(1,3)-pyridazinacycloundecaphane-4-yl)cyclopropane-1-carb oxamide] | – | – | – | –
8 | 1.4 nM | 0.26 nM | 2.74 nM | 12 nM | COCCN1CCN(c2cnc3c(c2)-c2c4c5cc(ccc5n2CCCOC3C)-c2csc(n2)CC(NC(=O)C2CC2C(F)F)C(=O)N2CCCC(N2)C(=O)OCC(C)(C)C4)CC1 [Example 101, (1S,2S)-2-(difluoromethyl)-N-((1^5S,6^3S,4S,Z)-1^2-(4-(2-methoxyethyl)piperazin-1-yl)-1^5,10,10-trimethyl-5,7-dioxo-1^8,1^9,6^1,6^2,6^3,6^4,6^5,6^6-octahydro-1^5H,1^7H-8-oxa-1(13,15)-pyrido[3',2':7,8][1,5]oxazonino[5,6-a]indola-2(4,2)-thiazola-6(1,3)-pyridazinacycloundecaphane-4-yl)cyclopropane-1-carboxamide] | – | – | – | –
9 | 0.38 nM | 0.17 nM | 4.13 nM | 14.7 nM | CC1OCCCn2c(c3c4cc(ccc42)-c2csc(n2)CC(NC(=O)C2CC2C(F)F)C(=O)N2CCCC(N2)C(=O)OCC(C)(C)C3)-c2cc(N3CCC(N4CCN(C)CC4)CC3)cnc21 [Example 102, (1S,2S)-2-(difluoromethyl)-N-((1^5S,6^3S,4S,Z)-1^5,10,10-trimethyl-1^2-(4-(4-methylpiperazin-1-yl)piperidin-1-yl)-5,7-dioxo-1^8,1^9,6^1,6^2,6^3,6^4,6^5,6^6-octahydro-1^5H,1^7H-8-oxa-1(13,15)-pyrido[3',2':7 ,8][1,5]oxazonino[5,6-a]indola-2(4,2)-thiazola-6(1,3)-pyridazinacycloundecaphane-4-yl)cyclopr opane-1-carboxamide] | – | – | – | –
